Laboratory results from patent publication US20120214818A1, “METHODS OF TREATING DIASTOLIC DYSFUNCTION AND RELATED CONDITIONS” (THE BOARD OF TRUSTEES OF THE UNIVERSITY OF ILLINOIS, priority 2009, published 2012).

Assays:
[1] = system: isolated ventricular cardiomyocytes from DOCA-salt and sham mice; assay: Cell shortening (sarcomere shortening and relengthening) of isolated cardiomyocytes; assay type: cell-based, mouse; settings: for relaxation τ (relaxation time constant): 10 μmol/L ranolazine 10 min
Description: Myocyte isolation: Cardiac ventricular myocytes were isolated from the hearts of DOCA-salt or age matched controls mice 14-18 d post-operatively using a modified enzymatic digestion protocol from the Alliance for Cellular Signaling as previously described.^20 Cell shortening and calcium transient measurements: The mechanical properties of the cardiomyocytes were assessed using an IonOptix Myocam System (Ionoptix Inc., Milton, Mass.). Unloaded cardiomyocytes were placed on a glass slide and allowed to adhere for 10 min. Cardiomyocytes were then imaged with an inverted microscope and perfused with a Tyrode's buffer containing 1.2 mmol/L calcium at room temperature. Cardiomyocytes were paced at 0.5 Hz for 10 ms duration, and sarcomere shortening and relengthening were assessed using the following indices: peak fractional shortening (FS), time to 90% peak shortening, and τ, the relaxation time constant (a0+[…]^t/τ, t=time). Cardiomyocytes were treated with 10 μmol/L ranolazine for 10 min prior to evaluation. For calcium transient measurements, cardiomyocytes were loaded with 1 μmol/L Fura 2-AM for 10 min at room temperature, and fluorescence measurements were recorded with a dual-excitation fluorescence photomultiplier system (IonOptix). After loading, the cells were washed and resuspended in normal Tyrode solution. The cardiomyocytes were placed then in the cell chamber, stimulated at 0.5 Hz for 10 ms duration, and imaged through a Fluor×40 objective lens. Cells were exposed to light emitted by a 75-W Xenon lamp and passed though either a 340- or 380-nm wavelength filter. The emitted fluorescence was detected at 510 nm. To take into account any inference from background fluorescence, the background fluorescence for each cardiomyocyte was determined by moving the cardiomyocyte out of the view and recording the fluorescence from the bath solution alone. The mechanical properties of the cardiomyocytes were assessed using an IonOptix Myocam System (Ionoptix Inc., Milton, Mass.). Unloaded cardiomyocytes were placed on a glass slide and allowed to adhere for 10 min at 37° C. Cardiomyocytes were then imaged with an inverted microscope and perfused with a Tyrode's buffer containing 1.2 mmol/L calcium at room temperature. Cardiomyocytes were paced at 0.5, 1, or 2 Hz for 10 ms duration, and sarcomere shortening and relengthening were assessed using the following indices: peak fractional shortening (FS), time to 90% peak shortening, and τ, the relaxation time constant (a0+[…]^t/τ, t=time). Cardiomyocytes were treated with 10 μmol/L ranolazine for 10 min prior to evaluation. […] For calcium transient measurements, cardiomyocytes were loaded with 1 μmol/L fura 2-AM for 10 min at 37° C., and fluorescence measurements were recorded with a dual-excitation fluorescence photomultiplier system (IonOptix). After loading, the cells were washed and resuspended in normal Tyrode solution. The cardiomyocytes were placed then in the cell chamber, stimulated at 0.5, 1, or 2 Hz for 10 ms duration, and imaged through a Fluor×40 objective lens. Cells were exposed to light emitted by a 75-W Xenon lamp and passed though either a 340- or 380-nm wavelength filter. The emitted fluorescence was detected at 510 nm. To take into account any interference, the background fluorescence for each cardiomyocyte was determined by moving the cardiomyocyte out of the view and recording the fluorescence from the bath solution alone. Myocyte isolation: Cardiac ventricular myocytes were isolated from the hearts of DOCA-salt or age matched controls mice 14-18 d post-operatively using a modified enzymatic digestion protocol from the Alliance for Cellular Signaling as previously described (Silberman et al., Circulation 121: 519-528 (2010)).

patients = settings: cited from earlier work
[2] = DOCA-salt cardiomyocytes paced at 1 Hz and 2 Hz (FIG. 14)

## COc1ccccc1OCC(O)CN1CCN(CC(=O)Nc2c(C)cccc2C)CC1 (centres unmarked) [ranolazine]
[1]; [2]
  relaxation time (τ) at 1 and 2 Hz pacing: improved relaxations times at both frequencies
  sarcomere length at 1 and 2 Hz pacing: lengthened sarcomere length at both frequencies
[1]; DOCA-salt cardiomyocytes, 0.5 Hz, 37° C. (Example 7)
  relaxation τ (relaxation time constant): 0.13 ± 0.01 s
[1]; DOCA-salt cardiomyocytes, paced 0.5 Hz, room temperature (Example 3)
  relaxation τ (relaxation time constant): 0.08 ± 0.01 s
[1]; DOCA-salt cardiomyocytes, 10 μmol/L ranolazine (Example 6)
  resting (baseline) sarcomere length: 1.81±0.01 μm
[1]; DOCA-salt cardiomyocytes, 10 μmol/L ranolazine, 37° C. (Example 7)
  resting (baseline) sarcomere length: 1.81±0.01 μm
[1]; sham and DOCA-salt cardiomyocytes, 10 μmol/L ranolazine
  contraction (fractional shortening, time to 90% peak contraction): did not affect contraction
[1]; sham cardiomyocytes, 0.5 Hz, 37° C. (Example 7)
  relaxation τ (relaxation time constant): 0.09 ± 0.02 s
[1]; sham cardiomyocytes, paced 0.5 Hz, room temperature (Example 3)
  relaxation τ (relaxation time constant): 0.07 ± 0.01 s
[1]; sham cardiomyocytes, 10 μmol/L ranolazine (Example 6)
  resting (baseline) sarcomere length: 1.82±0.01 μm
[1]; sham cardiomyocytes, 10 μmol/L ranolazine, 37° C. (Example 7)
  resting (baseline) sarcomere length: 1.86±0.02 μm
[1]; washout
  reversibility of the effect on relaxation and sarcomere length: reversible upon washout
patients; clinically relevant doses, MERLIN TIMI 36 investigators
  proarrhythmic risk: no proarrhythmic risk
patients; human, in vivo
  relationship with the QTc interval: positive linear relationship
